The target of the experiment is vanilloid receptor 1 (VR1/TRPV1 receptor) (Homo sapiens, UniProt Q8NER1). The experiment is described as follows: FLIPR functional assay (Ca2+ influx, capsaicin) on the vanilloid receptor 1. As to conditions: capsaicin (Cap) stimulus; for Ki: functional (f), Ki from IC50 by Cheng-Prusoff, read-out: (f) Ki (human being) [nM] Cap; for inhibition at 5 µM: read-out: inhibition (as a percentage) Cap, (human being). The class given is cell-based.

Usually Ki stands for a measure of affinity in units of concentration, obtained from inhibition or displacement. `CC1CCN(c2nc(C(F)(F)F)ccc2CNC(=O)C(C)c2ccc(CNS(N)(=O)=O)cc2)CC1` (stereo not shown) [Example 58, N-((2-(4-methylpiperidin-1-yl)-6-(trifluoromethyl)pyridin-3-yl)methyl)-2-(4-((sulfamoylamino)methyl)phenyl)propanamide]: the Ki turned out to be 2 nM.
As for `COc1cc(C(C)C(=O)NCc2ccc(C(F)(F)F)nc2N2CCCC2)ccc1CNS(C)(=O)=O` (stereo not shown) [Example 48, 2-(3-methoxy-4-(methylsulfonamidomethyl)phenyl)-N-((2-(pyrrolidin-1-yl)-6-(trifluoromethyl)pyridin-3-yl)methyl)propanamide], the Ki was 87 nM.
Same read-out and setting: the figure for `CC(C(=O)NCc1ccc(C(F)(F)F)nc1N1CCCCC1)c1ccc(CNS(C)(=O)=O)c(F)c1` (stereo not shown) [Example 21, 2-(3-fluoro-4-(methylsulfonamidomethyl)phenyl)-N-((2-(piperidin-1-yl)-6-(trifluoromethyl)pyridin-3-yl)methyl)propanamide] is 5 nM; for `CCCCNc1nc(C(F)(F)F)ccc1CNC(=O)C(C)c1ccc(CNS(C)(=O)=O)c(F)c1` (stereo not shown) [Example 9, N-((2-(butylamino)-6-(trifluoromethyl)pyridin-3-yl)methyl)-2-(3-fluoro-4-(methylsulfonamidomethyl)phenyl)propanamide] it is 95 nM.
Same read-out and setting: with `CC(C(=O)NCc1ccc(C(F)(F)F)nc1N1CCCC1)c1ccc(CNS(C)(=O)=O)c(Cl)c1` (stereo not shown) [Example 45, 2-(3-chloro-4-(methylsulfonamidomethyl)phenyl)-N-((2-(pyrrolidin-1-yl)-6-(trifluoromethyl)pyridin-3-yl)methyl)propanamide] the figure was 80 nM; with `CC1CCN(c2nc(C(F)(F)F)ccc2CNC(=O)C(C)c2ccc(CN(C)S(C)(=O)=O)c(F)c2)CC1` (stereo not shown) [Example 63, 2-(3-fluoro-4-((N-methylmethylsulfonamido)methyl)phenyl)-N-((2-(4-methylpiperidin-1-yl)-6-(trifluoromethyl)pyridin-3-yl)methyl)propanamide], 55 nM.
With `Cc1cc(NC(=O)NCc2ccc(C(F)(F)F)nc2N2CCC(C)CC2)ccc1CNS(C)(=O)=O` [Example 53, N-(2-methyl-4-(3-((2-(4-methylpiperidin-1-yl)-6-(trifluoromethyl)pyridin-3-yl)methyl)ureido)benzyl)methanesulfonamide], the Ki came out at 5 nM.
Broadly, the inhibition is how much of the control response was suppressed. In the case of `CC1CCN(c2nc(C(F)(F)F)ccc2CNC(=O)C(C)c2ccc(F)c(CNS(C)(=O)=O)c2)CC1` (stereo not shown) [Example 66, 2-(4-fluoro-3-(methylsulfonamidomethyl)phenyl)-N-((2-(4-methylpiperidin-1-yl)-6-(trifluoromethyl)pyridin-3-yl)methyl)propanamide], the inhibition at 5 µM (compound at 5 μM) was 58%.
Turning to `CC1CCN(c2nc(C(F)(F)F)ccc2CNC(=O)Nc2ccc(CNS(N)(=O)=O)c(F)c2)CC1` [Example 61, 1-{3-fluoro-4-[(sulfamoylamino)methyl]phenyl}-3-{[2-(4-methylpiperidin-1-yl)/-6-(trifluoromethyl)pyridin-3-yl]methyl}urea], the Ki is 1 nM.
Still for that read-out and setting: with `CC1CCN(c2nc(C(F)(F)F)ccc2CNC(=O)C(C)c2ccc(CNS(C)(=O)=O)cc2)CC1` (stereo not shown) [Example 6, N-((2-(4-methylpiperidin-1-yl)-6-(trifluoromethyl)pyridin-3-yl)methyl)-2-(4-(methylsulfonamidomethyl)phenyl)propanamide] the figure was 11 nM; with `CC1CCN(c2nc(C(F)(F)F)ccc2CNC(=O)Nc2ccc(CNS(N)(=O)=O)cc2)CC1` [Example 59, 1-{[2-(4-methylpiperidin-1-yl)-6-(trifluoromethyl)pyridin-3-yl]methyl}-3-{4-[(sulfamoylamino)methyl]phenyl}urea], 1 nM; with `NS(=O)(=O)NCc1ccc(NC(=O)NCc2ccc(C(F)(F)F)nc2N2CCCC2)cc1` [Example 57, 1-{[2-pyrrolidin-1-yl-6-(trifluoromethyl)pyridin-3-yl]methyl}-3-{4-[(sulfamoylamino)methyl]phenyl}urea], 85 nM.
As to `CC(C(=O)NCc1ccc(C(F)(F)F)nc1N1CCOCC1)c1ccc(CNS(C)(=O)=O)c(F)c1` (stereo not shown) [Example 35, 2-(3-fluoro-4-(methylsulfonamidomethyl)phenyl)-N-((2-morpholino-6-(trifluoromethyl)pyridin-3-yl)methyl)propanamide], under “compound at 5 μM”, the inhibition at 5 µM came out at 53%.
Turning to “N-(2-fluoro-5-(3-((2-(4-methylpiperidin-1-yl)-6-(trifluoromethyl)pyridin-3-yl)methyl)ureido)benzyl)methanesulfonamide [Example 65]”, the “inhibition (as a percentage) Cap, (human being)” value (compound at 5 μM) was 12%@5 μM.
Consider `COC1CN(c2nc(C(F)(F)F)ccc2CNC(=O)C(C)c2ccc(CNS(C)(=O)=O)c(F)c2)C1` (stereo not shown) [Example 14, 2-(3-fluoro-4-(methylsulfonamidomethyl)phenyl)-N-((2-(3-methoxyazetidin-1-yl)-6-(trifluoromethyl)pyridin-3-yl)methyl)propanamide], for which the inhibition at 5 µM (compound at 5 μM) came to 46%.
As to `CC(C(=O)NCc1ccc(C(F)(F)F)nc1N1CCCC1)c1ccc(CNS(C)(=O)=O)c(F)c1` (stereo not shown) [Example 17, 2-(3-fluoro-4-(methylsulfonamidomethyl)phenyl)-N-((2-(pyrrolidin-1-yl)-6-(trifluoromethyl)pyridin-3-yl)methyl)propanamide], the Ki turned out to be 23 nM.
On the same count and under the same terms, the figure for `CC1CCN(c2nc(C(C)(C)C)ccc2CNC(=O)C(C)c2ccc(CNS(C)(=O)=O)c(F)c2)CC1` (stereo not shown) [Example 28, N-((6-tert-butyl-2-(4-methylpiperidin-1-yl)pyridin-3-yl)methyl)-2-(3-fluoro-4-(methylsulfonamidomethyl)phenyl)propanamide] is 5 nM.
In the case of `CC(C(=O)NCc1ccc(C(F)(F)F)nc1N1CCCC1)c1cccc(CNS(C)(=O)=O)c1` (stereo not shown) [Example 2, 2-(3-(methylsulfonamidomethyl)phenyl)-N-((2-(pyrrolidin-1-yl)-6-(trifluoromethyl)pyridin-3-yl)methyl)propanamide], where the note is “compound at 5 μM”, the inhibition at 5 µM came to 48%.
For `CC(C(=O)NCc1ccc(C(F)(F)F)nc1N1CCC(c2ccccc2)(N(C)C)CC1)c1ccc(CNS(C)(=O)=O)c(F)c1` (stereo not shown) [Example 34, N-((2-(4-(dimethylamino)-4-phenylpiperidin-1-yl)-6-(trifluoromethyl)pyridin-3-yl)methyl)-2-(3-fluoro-4-(methylsulfonamidomethyl)phenyl)propanamide], the Ki turned out to be 61 nM.
Turning to `CC1CCN(c2cc(C(F)(F)F)ccc2CNC(=O)C(C)c2ccc(CNS(C)(=O)=O)c(F)c2)CC1` (stereo not shown) [Example 29, 2-(3-fluoro-4-(methylsulfonamidomethyl)phenyl)-N-(2-(4-methylpiperidin-1-yl)-4-(trifluoromethyl)benzyl)propanamide], the Ki came out at 5 nM.
The same measure, in the same setting: the figure for `CC1CCN(c2nc(C(F)(F)F)ccc2CNC(=O)Nc2ccc(CNS(C)(=O)=O)cc2)CC1` [Example 5, N-(4-(3-((2-(4-methylpiperidin-1-yl)-6-(trifluoromethyl)pyridin-3-yl)methyl)ureido)benzyl)methanesulfonamide] is 4 nM; for `CC1CCN(c2nc(C(F)(F)F)ccc2CNC(=O)Nc2ccc(CNS(C)(=O)=O)c(O)c2)CC1` [Example 47, N-(2-hydroxy-4-(3-((2-(4-methylpiperidin-1-yl)-6-(trifluoromethyl)pyridin-3-yl)methyl)ureido)benzyl)methanesulfonamide] it is 6 nM.

(Values after US8765733B2, “Amine substituted methanesulfonamide derivatives as vanilloid receptor ligands” (Gruenenthal GmbH, priority 2011, dated 2014).)
